Experimental data published in patent publication US20260132126A1, “IMIDAZOLE DERIVATIVES” (SANWA KAGAKU KENKYUSHO CO., LTD., priority 2022, published 2026).

Target: T1, human α1A adrenergic receptor (Homo sapiens, UniProt P35348)
T1 construct: host or cells: GeneBLAzer ADRA1A-NFAT-bla CHO-K1 cells
T1 sequence (P35348 1-466): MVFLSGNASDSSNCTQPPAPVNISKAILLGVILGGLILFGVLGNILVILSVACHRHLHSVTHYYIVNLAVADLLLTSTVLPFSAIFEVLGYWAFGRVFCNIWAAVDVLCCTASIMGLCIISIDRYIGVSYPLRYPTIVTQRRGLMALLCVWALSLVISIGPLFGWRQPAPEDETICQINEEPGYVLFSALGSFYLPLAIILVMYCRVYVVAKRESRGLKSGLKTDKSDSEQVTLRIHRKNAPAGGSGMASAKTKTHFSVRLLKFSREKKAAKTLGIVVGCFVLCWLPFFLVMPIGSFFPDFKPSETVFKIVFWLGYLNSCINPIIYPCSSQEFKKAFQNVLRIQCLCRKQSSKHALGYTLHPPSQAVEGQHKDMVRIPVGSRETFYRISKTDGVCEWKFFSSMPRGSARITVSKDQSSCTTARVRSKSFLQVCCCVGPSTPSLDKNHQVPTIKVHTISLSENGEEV
Test: Ca2+ mobilization assay in human α1A adrenergic receptor-expressing cells
Assay type: cell-based
Parameters: Emax: dose or concentration left out as unconfirmed
Conditions: for Emax at 10 µM: % activation at 10 μmol/L test compound, 100 μmol/L norepinephrine = 100%, well without test compound = 0%; for EC50: CHO-K1 cells expressing human α1A adrenergic receptor, Fluo-4 fluorescence, concentration giving 50% response of Emax, 4-parameter logistic regression
Procedure: CHO-K1 cells that highly express a human α1A adrenergic receptor (GeneBLAzer™ ADRA1A-NFAT-bla CHO-K1 Cells) were purchased from Thermo Fisher Scientific, Inc., and cultured according to the instructions.
The cultured human α1A adrenergic receptor-expressing cells were washed with D-PBS, then replaced with a loading buffer (2 μmol/L Fluo-4/AM, 1× PowerLoad, 2.5 mmol/L Probenecid-containing DMEM (high-glucose)) and incubated at 37° C. for 60 minutes in a 5% CO2 incubator. The cells were detached using 0.05% trypsin-EDTA solution, and suspended in an assay buffer ([…], 0.054 mol/L KCl, 1.8 mmol/L CaCl2), 1 mmol/L MgSO4, 0.11 mol/L glucose, 0.01 mol/L NaH2PO4·2H2O, […], pH 7.3) to be 500,000 cells/mL.
Test compounds were dissolved in dimethylsulfoxide, and diluted with an assay buffer containing 0.3% BSA. The final concentrations of the test compounds were set to fall within the range of 0.1 nmol/L to 10 μmol/L. As a reference compound, norepinephrine was set to have a final concentration within the range of 0.01 nmol/L to 100 μmol/L.
On a 384-well clear bottom black plate coated with poly-D-lysine (Corning Inc.), the above-described cell-suspended solution was dispersed in 40 μL each (20,000 cells/well) and allowed to stand for 10 minutes. The plate was transferred to a fluorescent imaging plate reader (FDSS7000, Hamamatsu Photonics K.K.), and measurements were started. After 1 minute from the start of the measurements, 20 μL of the test compound solutions or norepinephrine solution (total amount: 60 μL/well) was added to each well of the plate (final concentration: 0.1% BSA, 0.1% dimethylsulfoxide), and the temporal change in fluorescence intensity of Fluo-4 was further measured for 5 minutes (Ex 480 nm/Em 540 nm).
The normalized values (% activation) were used for subsequent analyses.
Emax values and EC50 values were calculated by creating a concentration-response curve of the test compounds using a 4-parameter logistic regression with XLFit, Emax value being defined as % activation of test compound at the concentration of 10 μmol/L, and EC50 value being defined as the concentration in which 50% response of the Emax values is shown.

Structure (SMILES) | Emax at 10 µM [%] | EC50 [nM] | Emax [%]
c1cncc(-c2ccccc2NCc2c[nH]cn2)c1 [Example 9, N-((1H-imidazol-4-yl)methyl)-2-(pyridin-3-yl)aniline] | 101 | 2.1 | –
c1csc(-c2sccc2NCc2c[nH]cn2)c1 [Example 2, N-((1H-imidazol-4-yl)methyl)-[2,2′-bithiophen]-3-amine] | 105 | 0.9 | –
c1ccc(-c2cncnc2)c(OCc2c[nH]cn2)c1 [Example 69] | – | 0.9 | 104
Fc1cncc(-c2cscc2NCc2c[nH]cn2)c1 [Example 6, N-((1H-imidazol-4-yl)methyl)-4-(5-fluoropyridin-3-yl)thiophen-3-amine] | 92 | 1.1 | –
COc1cccc(-c2cscc2NCc2c[nH]cn2)n1 [Example 22, N-((1H-imidazol-4-yl)methyl)-4-(6-methoxypyridin-2-yl)thiophen-3-amine] | 88 | 1.2 | –
COc1cncc(-c2cscc2NCc2c[nH]cn2)n1 [Example 31, N-((1H-imidazol-4-yl)methyl)-4-(6-methoxypyrazin-2-yl)thiophen-3-amine] | 103 | 0.8 | –
Cc1ccc(-c2cncnc2C)c(NCc2c[nH]cn2)c1 [Example 20, N-((1H-imidazol-4-yl)methyl)-5-methyl-2-(4-methylpyrimidin-5-yl)aniline] | 91 | 2.4 | –
COc1cccc(-c2ccccc2NC(C)c2c[nH]cn2)n1 (single isomer, unassigned; (+)) [Example 39, (+)-N-(1-(1H-Imidazol-4-yl)ethyl)-2-(6-methoxypyridin-2-yl)aniline] | 94 | 1.9 | –
c1ccc(-c2cncs2)c(NCc2c[nH]cn2)c1 [Example 11, N-((1H-imidazol-4-yl)methyl)-2-(thiazol-5-yl)aniline] | 104 | 1.8 | –
c1ccc(-c2ccccc2NCc2c[nH]cn2)nc1 [Example 27, N-((1H-imidazol-4-yl)methyl)-2-(pyridin-2-yl)aniline] | 100 | 2.3 | –
c1nc(CNc2cscc2-c2cscn2)c[nH]1 [Example 14, N-((1H-imidazol-4-yl)methyl)-4-(thiazol-4-yl)thiophen-3-amine] | 88 | 2.2 | –
CC(Nc1ccccc1-c1cccnc1)c1c[nH]cn1 (stereo not shown) [Example 35, N-(1-(1H-Imidazol-4-yl)ethyl)-2-(pyridin-3-yl)aniline] | 90 | 5.1 | –
COc1cccnc1-c1ccccc1NCc1c[nH]cn1 [Example 28, N-((1H-imidazol-4-yl)methyl)-2-(3-methoxypyridin-2-yl)aniline] | 96 | 4.9 | –
COc1ncncc1-c1cscc1NCc1c[nH]cn1 [Example 23, N-((1H-imidazol-4-yl)methyl)-4-(4-methoxypyrimidin-5-yl)thiophen-3-amine] | 95 | 0.1 | –
COc1ncncc1-c1ccccc1OCc1c[nH]cn1 [Example 75] | – | 0.2 | 95
COc1cccnc1-c1cscc1NCc1c[nH]cn1 [Example 17, N-((1H-imidazol-4-yl)methyl)-4-(3-methoxypyridin-2-yl)thiophen-3-amine] | 90 | 2 | –
CC(Nc1ccccc1-c1cscn1)c1c[nH]cn1 (single isomer, unassigned; (+)) [Example 40, (+)-N-(1-(1H-Imidazol-4-yl)ethyl)-2-(thiazol-4-yl)aniline] | 111 | 0.6 | –
CC(Nc1ccccc1-c1cscn1)c1c[nH]cn1 (stereo not shown) [Example 38, N-(1-(1H-imidazol-4-yl)ethyl)-2-(thiazol-4-yl)aniline] | – | 0.8 | 107
Cc1cccnc1-c1cscc1NCc1c[nH]cn1 [Example 16, N-((1H-imidazol-4-yl)methyl)-4-(3-methylpyridin-2-yl)thiophen-3-amine] | 88 | 9.6 | –
Cc1ncncc1-c1ccccc1OCc1c[nH]cn1 [Example 76] | – | 3.3 | 98
Cc1ncsc1-c1cscc1NCc1c[nH]cn1 [Example 18, N-((1H-imidazol-4-yl)methyl)-4-(4-methylthiazol-5-yl)thiophen-3-amine] | 88 | 5.3 | –
c1cc(-c2cscc2NCc2c[nH]cn2)[nH]n1 [Example 8, N-((1H-imidazol-4-yl)methyl)-4-(1H-pyrazol-5-yl)thiophen-3-amine] | 96 | 1.2 | –
COc1n[nH]cc1-c1ccc(C)cc1NCc1c[nH]cn1 [Example 33, N-((1H-Imidazol-4-yl)methyl)-2-(3-methoxy-1H-pyrazol-4-yl)-5-methylaniline] | 97 | 3.9 | –

The next lines start with results.

Emax at 10 µM [%] | EC50 [nM] | Structure (SMILES) | Emax [%]
90 | 3.2 | Cc1c(F)cncc1-c1ccccc1OCc1c[nH]cn1 [Example 60] | –
104 | 4.3 | Cc1n[nH]cc1-c1ccccc1OCc1c[nH]cn1 [Example 49] | –
104 | 4.8 | c1csc(-c2ccccc2OCc2c[nH]cn2)c1 [Example 46] | –
102 | 1.8 | Fc1cncc(-c2ccccc2OCc2c[nH]cn2)c1 [Example 51] | –
96 | 1.3 | Cc1ccc(-c2cnccn2)c(OCc2c[nH]cn2)c1 [Example 66, 2-(2-((1H-Imidazol-4-yl)methoxy)-4-methylphenyl)pyrazine] | –
90 | 2.7 | COc1ncccc1-c1ccccc1OCc1c[nH]cn1 [Example 52] | –
99 | 6.4 | CC(Oc1ccccc1-c1cccs1)c1c[nH]cn1 (stereo not shown) [Example 78, 4-(1-(2-(Thiophen-2-yl)phenoxy)ethyl)-1H-imidazole] | –
101 | 0.6 | Cc1ccc(-c2cn[nH]c2)c(OCc2c[nH]cn2)c1 [Example 55] | –
92 | 3.4 | c1nc(CNc2cscc2-c2ccoc2)c[nH]1 [Example 41, N-((1H-Imidazol-4-yl)methyl)-4-(furan-3-yl)thiophen-3-amine] | –
97 | 7.3 | c1ncc(-c2cscc2NCc2c[nH]cn2)cn1 [Example 42] | –
95 | 9.9 | c1ccc(-c2cn[nH]c2)c(OCc2c[nH]cn2)c1 [Example 47, 4-(2-((1H-imidazol-4-yl)methoxy)phenyl)-1H-pyrazole] | –
99 | 5.3 | Cc1ncncc1-c1ccc(F)cc1OCc1c[nH]cn1 [Example 64] | –
108 | 4.5 | CC(Oc1ccccc1-c1cccs1)c1c[nH]cn1 (single isomer, unassigned; (+)) [Example 79, (+)-4-(1-(2-(Thiophen-2-yl)phenoxy)ethyl)-1H-imidazole] | –
91 | 20 | c1ccc(-c2cnco2)c(NCc2c[nH]cn2)c1 [compound 1, N-((1H-imidazol-4-yl)methyl)-2-(oxazol-5-yl) aniline, reference compound] | –
103 | 2.1 | c1ccc(-c2cscn2)c(OCc2c[nH]cn2)c1 [Example 67, 4-(2-((1H-Imidazol-4-yl)methoxy)phenyl)thiazole] | –
108 | 2.2 | c1ccc(-c2ccsc2)c(OCc2c[nH]cn2)c1 [Example 44, 4-((2-(Thiophen-3-yl)phenoxy)methyl)-1H-imidazole] | –
110 | 0.9 | N#Cc1n[nH]cc1-c1ccccc1OCc1c[nH]cn1 [Example 50] | –
91 | 2.4 | COc1ccncc1-c1ccc(C)cc1OCc1c[nH]cn1 [Example 62] | –
